≈ marks a conversion by molar mass, not a printed value. Read-outs that look alike come from different tables or passages of the source. Where a SMILES comes first, the peptide text is derived from it.
Tests used:
[1] = system: S. aureus ATCC 25923 biofilm formation; format: cell-based, Staphylococcus aureus; conditions: ATCC 25923, 24 h
Procedure: (§1) The minimum inhibitory concentrations (MICs) of test compounds were assessed by broth microdilution method on 96-well plates, according to the guidelines of Clinical and Laboratory Standards Institute (CLSI). For this purpose, reference strains of bacteria: S. aureus ATCC 25923, E. faecalis PCM 2673, E. coli ATCC 25922, and P. aeruginosa ATCC 9027; and fungus: C. albicans ATCC 10231 were used (The Polish Collection of Microorganism, Polish Academy of Sciences, Wrocław, Poland). Bacteria at initial inoculums of 0.5 × 10^5 CFU/mL in Mueller Hinton Broth (MHB), and fungi at initial inoculums of 2 × 10^3 CFU/mL in RPMI-1640, were exposed to the compounds over the concentration range of 1–512 μg/mL. The polystyrene plates were incubated at 37 °C for 18 h with bacteria and for 24 h with C. albicans. The MIC was taken as the lowest concentration at which a noticeable growth of microorganisms was inhibited. Minimum biofilm eradication concentrations (MBECs) were determined using a previously described protocol. For this purpose, 96-well polystyrene flat-bottom plates and a resazurin (7-hydroxy-3H-phenoxazin-3-one 10-oxide) were used. In this assay, a specific feature of resazurin is utilized, which upon the contact with living cells is metabolized and reduced from the basic blue form to pink resorufin. Briefly, 24-h cultures of microorganisms were diluted 1,000-fold and 100 μL of that suspension was added into the test plates. After 24 h of incubation at 37 °C, the wells of the plates were rinsed three times with phosphate buffer saline (PBS) to remove non-adherent cells. Subsequently, 100 μL of test compounds in concentration range (diluted in appropriate media) were added to each well. After 24 h of incubation at 37 °C, 20 μL of the resazurin (4 mg/mL) was added. The MBEC was read after 1 h. Additionally, anti-adhesive properties of the compounds were also analyzed. The assay was conducted on 96-well polystyrene flat-bottom plates. The preparation of inoculums was followed by a 500-fold dilution of 24-h cultures of microorganisms. Briefly, to evaluate the effect of the peptides in preventing biofilm formation, 50 μL of compounds in concentration range, diluted in appropriate medium, were prepared. Subsequently, the 50 μL of the bacterial/fungal inoculums were added to reach the same microbial density as that in MBEC assay. After 24 h of incubation at 37 °C, the wells were rinsed three times with PBS and the fresh media with resazurin (0.6 mg/mL) were added. Then, after 1 h of incubation, the minimum biofilm inhibitory concentrations (MBIC) were read. MBECs as well as MBICs were determined as the lowest concentration at which the reduction of resazurin was lower or equal (10% ± 0.5%) as compared to positive (100%) and negative (0%) controls. All experiments were performed in triplicate.

[2] = system: S. aureus ATCC 25923 biofilm; format: cell-based, Staphylococcus aureus; conditions: ATCC 25923, 24 h
Procedure: as §1

S. aureus ATCC 25923 = format: cell-based, Staphylococcus aureus; conditions: ATCC 25923, 18 h
Procedure: as §1

[3] = system: E. faecalis PCM 2673 biofilm formation; format: cell-based, Enterococcus faecalis; conditions: 24 h
Procedure: as §1

[4] = system: E. faecalis PCM 2673 biofilm; format: cell-based, Enterococcus faecalis; conditions: 24 h
Procedure: as §1

E. faecalis PCM 2673 = format: cell-based, Enterococcus faecalis; conditions: PCM 2673, 18 h
Procedure: as §1

[5] = system: E. coli ATCC 25922 biofilm formation; format: cell-based, Escherichia coli; conditions: ATCC 25922, 24 h
Procedure: as §1

[6] = system: E. coli ATCC 25922 biofilm; format: cell-based, Escherichia coli; conditions: ATCC 25922, 24 h
Procedure: as §1

E. coli ATCC 25922 = format: cell-based, Escherichia coli; conditions: ATCC 25922, 18 h
Procedure: as §1

[7] = system: P. aeruginosa ATCC 9027 biofilm formation; format: cell-based, Pseudomonas aeruginosa; conditions: ATCC 9027, 24 h
Procedure: as §1

[8] = system: P. aeruginosa ATCC 9027 biofilm; format: cell-based, Pseudomonas aeruginosa; conditions: ATCC 9027, 24 h
Procedure: as §1

P. aeruginosa ATCC 9027 = format: cell-based, Pseudomonas aeruginosa; conditions: ATCC 9027, 18 h
Procedure: as §1

[9] = system: C. albicans ATCC 10231 biofilm formation; format: cell-based, Candida albicans; conditions: ATCC 10231, 24 h
Procedure: as §1

[10] = system: C. albicans ATCC 10231 biofilm; format: cell-based, Candida albicans; conditions: ATCC 10231, 24 h
Procedure: as §1

C. albicans ATCC 10231 = format: cell-based, Candida albicans; conditions: ATCC 10231, 24 h
Procedure: as §1

[11] = system: human red blood cells (RBCs); experiment: Hemolysis assay; format: cell-based
Procedure: The hemolytic activity of the peptides was determined using fresh human red blood cells (RBCs) collected from a healthy human donor according to the procedure described in the literature. Fresh RBCs with EDTA as anticoagulant were rinsed three times with a PBS by centrifugation at 800×g for 10 min and resuspension in PBS. Serial dilution of the peptides in PBS (1–256 μg/mL) on 96-well polystyrene plates was prepared and the stock solution of RBCs was added up to a final volume of 100 μL with a 4% concentration of erythrocytes (v/v). The control wells for 0 and 100% hemolysis contained of RBCs suspended in PBS and 1% of Triton-X 100, respectively. Subsequently, the plates were incubated for 1 h at 37 °C and then centrifuged at 800×g for 10 min at 4 °C (Sorvall ST 16R Centrifuge, Thermo Scientific). After centrifugation, the supernatant was carefully […] to new microtiter plates and the release of hemoglobin was measured at 540 nm (Multiskan™ GO Microplate Spectrophotometer, Thermo Scientific). All experiments were conducted in triplicate.

in vitro = in vitro ADME; conditions: bovine, serum
Procedure: To assess serum stability, the peptides (0.5 mg) were dissolved in 4 mL of 25% (v/v) fetal bovine serum (FBS) in PBS and incubated at 37 °C. The aliquots of 100 μL of the test samples were transferred to 96-well polystyrene plates in triplicate for each time point. Samples were quenched at zero time (t0) and after 6 h of incubation at 37 °C by addition of 100 μL of ice-cold acetonitrile and stored at 4 °C for 10 min. Afterwards, the samples were centrifuged at 13,000×g for 20 min at 4 °C and diluted 1:1 with HPLC-grade water. All samples were analyzed using the Waters Alliance e2695 system with Waters Acquity QDa Detector (software–Empower®3). Analyses were conducted on an Agilent Zorbax SB-C18 RP-18 column (4.6 × 50 mm, 1.8-μm particle size, 80-Å pore size) using a linear 30–60% acetonitrile (B) gradient in deionized water (A) over 6 min at 25.0 ± 0.1 °C, at a flow rate of 0.5 mL/min and MS working in selected ion recording (SIR) mode (A—0.1% aqueous formic acid (FA) and B—0.1% FA in acetonitrile). The percentage of peptide remaining intact was calculated from peak areas of samples at t0 and after 6 h of incubation in serum (the % of remaining peptide = peak area after 6 h/peak area at t0). The mass-to-charge ratios selected for SIR mode were based on values obtained from full spectrum analysis of each peptide and are presented in Table 1.

| Structure (SMILES) | MBIC, S. aureus ATCC 25923 [1] | MBEC, S. aureus ATCC 25923 [2] | MIC, S. aureus ATCC 25923 (S. aureus ATCC 25923) | MBIC, E. faecalis PCM 2673 [3] | MBEC, E. faecalis PCM 2673 [4] | MIC, E. faecalis PCM 2673 (E. faecalis PCM 2673) | MBIC, E. coli ATCC 25922 [5] | MBEC, E. coli ATCC 25922 [6] | MIC, E. coli ATCC 25922 (E. coli ATCC 25922) | MBIC, P. aeruginosa ATCC 9027 [7] | MBEC, P. aeruginosa ATCC 9027 [8] | MIC, P. aeruginosa ATCC 9027 (P. aeruginosa ATCC 9027) | MBIC, C. albicans ATCC 10231 [9] | MBEC, C. albicans ATCC 10231 [10] | MIC, C. albicans ATCC 10231 (C. albicans ATCC 10231) | Percentage of hemolysis at 1 μg/mL ([11]; red cells of human, 1 h) | Percentage of hemolysis at 4 μg/mL ([11]; red cells of human, 1 h) | Percentage of hemolysis at 8 μg/mL ([11]; red cells of human, 1 h) | Percentage of hemolysis at 16 μg/mL ([11]; red cells of human, 1 h) | Percentage of hemolysis at 32 μg/mL ([11]; red cells of human, 1 h) | other results |
| --- | --- | --- | --- | --- | --- | --- | --- | --- | --- | --- | --- | --- | --- | --- | --- | --- | --- | --- | --- | --- | --- |
| CC[C@H](C)[C@H](NC(=O)[C@H](C)NC(=O)[C@H](Cc1ccccc1)NC(=O)[C@H](CC(C)C)NC(=O)CN)C(=O)N[C@H](C(=O)N[C@@H](CCCCN)C(=O)N[C@@H](CCCCN)C(=O)N[C@H](C(=O)N[C@@H](C)C(=O)N[C@@H](CCC(=O)O)C(=O)N[C@@H](CO)C(=O)N[C@@H](Cc1ccccc1)C(N)=O)[C@@H](C)CC)[C@@H](C)CC [Peptide D4A] (H-GLFAIIKKIAESF-NH2) | 16 µg/mL | 16 µg/mL | 16 µg/mL (≈ 11.1 µM) | 32 µg/mL | 128 µg/mL | 32 µg/mL (≈ 22.3 µM) | 8 µg/mL | 32 µg/mL | 8 µg/mL (≈ 5.57 µM) | 64 µg/mL | 512 µg/mL | 64 µg/mL (≈ 44.6 µM) | 2 µg/mL | 512 µg/mL | 64 µg/mL (≈ 44.6 µM) | 0.2% | 0.3% | 0.3% | 0.3% | 1.5% | Percentage of hemolysis at 2 μg/mL ([11]; red cells of human, 1 h, 2): 0.3%; Percentage of hemolysis at 64 μg/mL ([11]; red cells of human, 1 h): 6.6%; Percentage of hemolysis at 128 μg/mL ([11]; red cells of human, 1 h): 23.2%; Percentage of hemolysis at 256 μg/mL ([11]; red cells of human, 1 h): 61.0%; remaining at 6 h, 0.125 mg/mL (in vitro): 44% |
| CC[C@H](C)[C@H](NC(=O)[C@H](CCCCN)NC(=O)[C@H](CCCCN)NC(=O)[C@@H](NC(=O)[C@@H](NC(=O)[C@H](CC(=O)O)NC(=O)[C@H](Cc1ccccc1)NC(=O)[C@H](CC(C)C)NC(=O)CN)[C@@H](C)CC)[C@@H](C)CC)C(=O)N[C@@H](C)C(=O)N[C@@H](C)C(=O)N[C@@H](CO)C(=O)N[C@@H](Cc1ccccc1)C(N)=O [Peptide E11A] (H-GLFDIIKKIAASF-NH2) | 32 µg/mL | 16 µg/mL | 32 µg/mL (≈ 22.5 µM) | 32 µg/mL | > 512 µg/mL | 32 µg/mL (≈ 22.5 µM) | 16 µg/mL | 64 µg/mL | 16 µg/mL (≈ 11.3 µM) | 64 µg/mL | 512 µg/mL | 64 µg/mL (≈ 45 µM) | 4 µg/mL | > 512 µg/mL | 32 µg/mL (≈ 22.5 µM) | 0.1% | 0.2% | 0.1% | 0.1% | 0.4% | Percentage of hemolysis at 2 μg/mL [11]: 17.4%; Percentage of hemolysis at 64 μg/mL ([11]; red cells of human, 1 h): 2.9%; Percentage of hemolysis at 128 μg/mL ([11]; red cells of human, 1 h): 11.9%; Percentage of hemolysis at 256 μg/mL ([11]; red cells of human, 1 h): 40.2%; remaining at 6 h, 0.125 mg/mL (in vitro): 17% |
| CC[C@H](C)[C@H](NC(=O)[C@H](CCCCN)NC(=O)[C@H](CCCCN)NC(=O)[C@@H](NC(=O)[C@@H](NC(=O)[C@H](CC(=O)O)NC(=O)[C@H](C)NC(=O)[C@H](CC(C)C)NC(=O)CN)[C@@H](C)CC)[C@@H](C)CC)C(=O)N[C@@H](C)C(=O)N[C@@H](CCC(=O)O)C(=O)N[C@@H](CO)C(=O)N[C@@H](Cc1ccccc1)C(N)=O [Peptide F3A] (H-GLADIIKKIAESF-NH2) | >512 µg/mL | > 512 µg/mL | 512 µg/mL (≈ 365 µM) | 256 µg/mL | > 512 µg/mL | 256 µg/mL (≈ 182 µM) | 256 µg/mL | 256 µg/mL | 128 µg/mL (≈ 91.2 µM) | 512 µg/mL | > 512 µg/mL | 512 µg/mL (≈ 365 µM) | 4 µg/mL | > 512 µg/mL | 128 µg/mL (≈ 91.2 µM) | 0.1% | 0.0% | 0.0% | 0.0% | 0.0% | Percentage of hemolysis at 2 μg/mL ([11]; red cells of human, 1 h, 2): 0.1%; Percentage of hemolysis at 64 μg/mL ([11]; red cells of human, 1 h): 0.0%; Percentage of hemolysis at 128 μg/mL ([11]; red cells of human, 1 h): 0.0%; Percentage of hemolysis at 256 μg/mL ([11]; red cells of human, 1 h): 0.3%; remaining at 6 h, 0.125 mg/mL (in vitro): 38% |

Reference: article PMC6695355, “Alanine Scanning Studies of the Antimicrobial Peptide Aurein 1.2” (Probiotics and Antimicrobial Proteins, 2018)
